Source: patent US8076514B2, “Phenyl compounds and their use in the treatment of Type II diabetes” (Eli Lilly and Company, priority 2005, dated 2011)
Counter-ions that a name gives are not always drawn.

Molecular target: T1, human recombinant DPIV enzyme (Homo sapiens, UniProt P27487)
T1 construct: Secreted DPIV (lacking membrane anchor) is enriched from HEK293 cell culture supernatant; made in house; host or cells: HEK293
Experiment: Human Recombinant DPIV Activity Assay (fluorometric end point, Gly-Pro-AMC substrate)
Format: biochemical
Settings: enriched human recombinant DPIV, Gly-Pro-AMC 0.02 mM, 12 points concentration response curve
Experimental: Human Recombinant DPIV Activity Assay The DPIV assay uses a fluorometric end point assay (excitation 355 nm; emission 460 nm), enriched human recombinant DPIV enzyme (21.3 μU/μl), and Gly-Pro-AMC (Bachem I-1225) as substrate (0.02 mM). Secreted DPIV (lacking membrane anchor) is enriched from HEK293 cell culture supernatant by ultrafiltration, ultra-centrifugation, and size-exclusion chromatography. IC50 values of the compounds are calculated based on a 12 points concentration response curve. Each concentration is measured in duplicate. The assay is validated by plate variability and conformity, inter-plate variability, signal window, and minimum significant ration of IC50. A MSR is calculated based on a test/retest analysis and a retrospective analysis. The MSR value is 1.8.

T1 sequence (P27487 29-766 limits assumed): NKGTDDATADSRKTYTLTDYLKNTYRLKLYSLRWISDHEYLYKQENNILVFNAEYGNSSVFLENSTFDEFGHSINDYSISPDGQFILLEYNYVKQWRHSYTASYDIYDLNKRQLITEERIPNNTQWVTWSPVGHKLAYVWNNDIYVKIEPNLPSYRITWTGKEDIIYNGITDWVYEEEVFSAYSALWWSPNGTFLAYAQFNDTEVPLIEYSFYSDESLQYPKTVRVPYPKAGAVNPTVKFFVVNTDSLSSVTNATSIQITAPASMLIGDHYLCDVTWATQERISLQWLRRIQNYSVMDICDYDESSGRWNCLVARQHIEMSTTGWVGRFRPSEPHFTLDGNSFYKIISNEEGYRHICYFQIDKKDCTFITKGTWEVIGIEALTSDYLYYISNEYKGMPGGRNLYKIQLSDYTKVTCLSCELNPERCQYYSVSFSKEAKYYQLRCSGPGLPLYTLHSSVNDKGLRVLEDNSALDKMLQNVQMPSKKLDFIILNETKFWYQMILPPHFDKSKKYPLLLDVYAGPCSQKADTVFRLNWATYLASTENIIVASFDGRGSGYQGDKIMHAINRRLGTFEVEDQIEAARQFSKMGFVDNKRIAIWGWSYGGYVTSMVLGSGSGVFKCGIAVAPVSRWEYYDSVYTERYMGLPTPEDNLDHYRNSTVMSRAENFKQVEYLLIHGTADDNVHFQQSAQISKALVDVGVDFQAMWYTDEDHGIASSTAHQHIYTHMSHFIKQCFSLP

IC50	SMILES
98 nM	COc1ccc(C(=O)NC(C)(C)C)c(C[C@H](O)[C@H](N)Cc2ccccc2F)c1 [Example 6, 2-[(2S,3R)-3-Amino-4-(2-fluoro-phenyl)-2-hydroxy-butyl]-N-tert-butyl-4-methoxy-benzamide Hydrochloride]
134 nM	CC(C)(C)NC(=O)c1cc(Cl)ccc1C[C@H](O)[C@H](N)Cc1ccccc1F [Example 7, 2-[(2S,3R)-3-Amino-4-(2-fluoro-phenyl)-2-hydroxy-butyl]-N-tert-butyl-5-chloro-benzamide Hydrochloride]
